# Experimental data taken from patent US20250002492A1, “COMPOSITIONS OF FOLATE ABSORPTION INHIBITORS AND METHODS THEREOF” (THE TEXAS A&M UNIVERSITY SYSTEM, priority 2023, published 2025).
# Target: T1, Folate Uptake Transporter (PCFT) in Caco2 cells (Homo sapiens, UniProt Q96NT5)
# T1 construct: These cells express high levels of the PCFT/SLC46A1 receptor; host or cells: Caco-2
# T1 sequence (Q96NT5 1-459): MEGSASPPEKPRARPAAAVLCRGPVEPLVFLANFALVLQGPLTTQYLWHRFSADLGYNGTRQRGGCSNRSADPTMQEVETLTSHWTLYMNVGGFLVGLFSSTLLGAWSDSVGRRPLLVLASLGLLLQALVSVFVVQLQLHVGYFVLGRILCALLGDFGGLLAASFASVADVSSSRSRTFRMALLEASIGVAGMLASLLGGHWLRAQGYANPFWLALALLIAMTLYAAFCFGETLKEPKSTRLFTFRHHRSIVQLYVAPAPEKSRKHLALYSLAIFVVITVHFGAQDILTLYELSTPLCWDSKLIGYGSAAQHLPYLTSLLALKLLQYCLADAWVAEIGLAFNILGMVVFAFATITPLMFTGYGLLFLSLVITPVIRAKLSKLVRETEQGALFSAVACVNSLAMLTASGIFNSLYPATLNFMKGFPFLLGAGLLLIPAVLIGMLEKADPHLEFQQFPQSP
# Assay: Folate uptake transporter substrate assessment in Caco2 cell line (compound uptake with and without pemetrexed)
# Assay type: in vitro ADME
# Experimental: Cell Plates were Prepared According to the Methods of Example 8 Using Caco-2 Cells from American Type Culture Collection at Passage 37.
# The transport buffer (HBSS with 10 mM MES, pH 5.5) was prepared by weighing 1.952 g of MES and 0.35 g sodium hydrogen carbonate and adding into 900 mL of pure water followed by sonication to dissolve the content. Following the transfer of 100 mL of 10×HBSS into the solution. The solution was placed on a stirrer, the pH was slowly adjusted with hydrochloric acid to 5.5, and then the solution was filtered to get HBSS solution (with 10 mM MES, pH 5.5).
# The test compounds and folic acid (1 μM) substrate solutions were prepared by diluting with pH 5.5 buffer. Next, the test compounds and folic acid (1 μM) substrate solution+positive control inhibitor (pemetrexed, 50 μM) were prepared. For the solution without inhibitor, DMSO was diluted with corresponding substrate solution to get the working incubation solution.
# For the solution with inhibitor, the pre-incubation solution was prepared by adding the positive control inhibitor (pemetrexed, 50 μM) in pH 5.5 buffer. For the solution without inhibitor, DMSO was diluted with pH 5.5 buffer and used as the vehicle control.
# When the 8-10 day Caco-2 cultured cells reached confluence and were differentiated, they were ready to be used for transport studies. The Caco-2 plate was removed from the incubator, and the medium was removed from the 24-well Plates. Next, cells were washed 3 times with 300 μL of pre-warmed pH 5.5 buffer. Then, 300 μL of pre-incubation solution was added into each well and the plate was placed at 37° C. for 30 minutes. The assay was performed in duplicate. After 30 minutes pre-incubation, the pre-incubation solution was aspirated, and 300 μL of pre-warmed working incubation solution was added to start the transporter assay. After 6 minutes incubation, cells were washed by quickly adding/aspirating 300 μL of ice-cold pH 5.5 buffer 4 times. The pH 5.5 buffer was removed and 300 μL of pure water was added into each well. Freeze-thaw in liquid nitrogen and 37° C. incubator was repeated for 3 times to lyse cells. After, centrifugation at 3,300 g was performed for 30 seconds. Next, 50 μL of supernatant was transferred to 200 μL methanol or acetonitrile containing internal standard and centrifuged at 3,300 g for 30 minutes. 200 μL aliquots of the supernatants were used for LC-MS/MS analysis. Standards were treated the same as samples.
# A BCA Kit was used to determine the protein content for each well. Bovine serum albumin at 2, 1, 0.5, 0.25, 0.125, 0.0625, 0.0313, 0.0156, 0.00781 and 0.00391 mg/mL was prepared in Phosphate Buffer Saline (PBS, pH 7.4). 10 μL of supernatant was mixed from the previous step with the same volume of PBS. 20 μL of standard or test sample was added into 96-well clear plate and mixed with 200 μL working reagent. After 30 minutes incubation at 37° C., the absorbance at 562 nm was measured on the microplate reader.
# Standard-curves: prepared 200 μM DMSO Folic acid solution, samples of 1000 nm, 300 nm, 100 nm, 30 nM, and 10 nM prepared using a PH 5.5 buffer, and a PH 5.5 buffer containing 50 μM of pemetrexed, respectively.
# All calculations were carried out using Microsoft Excel. Peak areas were determined from extracted ion chromatograms. Uptake rate, in unit of pmol/mg protein/min, is calculated using the following equation: Uptake rate=Conc./(Protein×Time); Conc. is concentration of drug in cell lysate (nM), Protein is the protein concentration of cell lysate (mg/mL), and Time is the incubation time (minute). Uptake ratio is calculated using the following equation: Uptake ratio=Uptake rate without inhibitor/Uptake rate with inhibitor. Note: The compound was considered as a potential substrate of a particular transporter when the uptake ratio was greater than 2.
smiles,measurement,setting,value
"CC(=O)N1CCC(C(=O)N2CCN3C(=O)c4cc(-c5ccccc5)ccc4NC(=O)C3C2)CC1 (centres unmarked) [MPOL_B_1, 2-(1-acetylpiperidine-4-carbonyl)-8-phenyl-1,3,4,12a-tetrahydrobenzo[e]pyrazino[1,2-a][1,4]diazepine-6,12(2H,11H)-dione]",cell permeability,Caco-2,least permeable
same,Uptake Ratio(−Inhibitor/+Inhibitor),"human, Caco-2, 6 min, 1 μM, pH 5.5",0.76
